Test results as given in ChEMBL document CHEMBL1139855, “Molecular recognition of DNA by rigid [N]-polynorbornane-derived bifunctional intercalators: synthesis and evaluation of their binding properties” (J Med Chem, 2007).

What was measured:
[1] = Binding affinity at poly (dGdC). poly (dGdC) dsDNA polynucleotide by competition dialysis assay
DNA = experiment: Binding affinity at calf thymus double stranded DNA by competition dialysis assay; assay type: nucleic-acid assay; conditions: Bos taurus
[2] = Binding affinity at polyA.Poly U dsRNA polynucleotide by competition dialysis assay
[3] = Binding affinity at poly (dAdT). poly (dAdT) dsDNA polynucleotide by competition dialysis assay
Escherichia coli = experiment: Binding affinity at Escherichia coli double stranded DNA by competition dialysis assay
[4] = Binding affinity at polyA ssRNA by competition dialysis assay
Triticum aestivum = experiment: Binding affinity at wheat germ single stranded RNA by competition assay
[5] = Binding affinity at poly(dA).poly(dT) dsDNA polynucleotide by competition dialysis assay

SMILES	Kapp [1]	Kapp (DNA)	Kapp [2]	Kapp [3]	Kapp (Escherichia coli)	Kapp [4]	Kapp (Triticum aestivum)	Kapp [5]
FC(F)(F)C12OC(C(F)(F)F)(C3C4CC(C5CN(CCNc6c7ccccc7nc7ccccc67)CC54)C31)C1C3CC(C4CN(CCNc5c6ccccc6nc6ccccc56)CC43)C12 (stereo unspecified)	27.6 10^3/M	20.3 10^3/M	0.53 10^3/M	29.5 10^3/M	19.1 10^3/M	1.73 10^3/M	0.53 10^3/M	19.6 10^3/M
COC(=O)C12OC(C(=O)OC)(C3C4CC(C5C(=O)N(CCNC(=O)c6cccc7cc8ccccc8nc67)C(=O)C45)C31)C1C3CC(C4C(=O)N(CCNc5c6ccccc6nc6ccccc56)C(=O)C34)C12 (stereo unspecified)	15.6 10^3/M	23.1 10^3/M	0.27 10^3/M	29.5 10^3/M	12.9 10^3/M	0.27 10^3/M	0.27 10^3/M	0.8 10^3/M
COC(=O)C12OC(C(=O)OC)(C3C4CC(C5C(=O)N(CCNC(=O)c6cccc7cc8ccccc8nc67)C(=O)C45)C31)C1C3CC(C4C(=O)N(CCNC(=O)c5cccc6cc7ccccc7nc56)C(=O)C34)C12 (stereo unspecified)	9.6 10^3/M	16 10^3/M	8.27 10^3/M	13.9 10^3/M	6.8 10^3/M	0.53 10^3/M	0.53 10^3/M	6.8 10^3/M

Results, then the compound that gave them:

Kapp [1]	Kapp (DNA)	Kapp [2]	Kapp [3]	Kapp (Escherichia coli)	Kapp [4]	Kapp (Triticum aestivum)	Kapp [5]	SMILES
8.13 10^3/M	8.13 10^3/M	0.8 10^3/M	14.4 10^3/M	14.9 10^3/M	0.8 10^3/M	7.6 10^3/M	3.87 10^3/M	COC(=O)C12OC(C(=O)OC)(C3C4CC(C5C(=O)N(CCNc6c7ccccc7nc7ccccc67)C(=O)C45)C31)C1C3CC(C4C(=O)N(CCN5C(=O)c6cccc7cccc(c67)C5=O)C(=O)C34)C12 (stereo unspecified)
26.4 10^3/M	30.4 10^3/M	25.5 10^3/M	31.7 10^3/M	25.7 10^3/M	1.47 10^3/M	5.33 10^3/M	23.7 10^3/M	COC(=O)C12OC(C(=O)OC)(C3C4CC(C5C(=O)N(CCNc6c7ccccc7nc7ccccc67)C(=O)C45)C31)C1C3CC(C12)C1C3C2(C(=O)OC)OC1(C(=O)OC)C1C3CC(C4C(=O)N(CCNc5c6ccccc6nc6ccccc56)C(=O)C34)C12 (stereo unspecified)
3.47 10^3/M	6.27 10^3/M	1.47 10^3/M	12.1 10^3/M	3.47 10^3/M	0 10^3/M	2.4 10^3/M	0.53 10^3/M	O=C1C2C3C=CC(C3)C2C(=O)N1CCNc1c2ccccc2nc2ccccc12 (stereo unspecified)
28.4 10^3/M	30.4 10^3/M	19.2 10^3/M	38.9 10^3/M	32.8 10^3/M	2.93 10^3/M	8.8 10^3/M	16.4 10^3/M	COC(=O)C12OC(C(=O)OC)(C3C4CC(C5C(=O)N(CCNc6c7ccccc7nc7ccccc67)C(=O)C45)C31)C1C3CC(C4C(=O)N(CCNc5c6ccccc6nc6ccccc56)C(=O)C34)C12 (stereo unspecified)
